Measured values: US8841508B2, “Non-human mammalian animal model for type 2 diabetes” (National University Corporation, priority 2009, dated 2014)

How the values were obtained:
[1] = test system: WT mice (wild type mice); assay: Screening simulation: fasting and glucose-tolerance blood glucose level after Exendin-4 in WT mice; format: in vivo, mouse; conditions: intraperitoneal, 0.1 mg per kg twice a day, after 1 week and 2 weeks, ANOVA p=0.02
Method: (§1) To the KO mice used for the verification of periodical changes of blood glucose level, Exendin-4 which is an agonist of a glucagon-like peptide-1 receptor known as a therapeutic agent for type 2 diabetes was intraperitoneally administrated as a test substance. A degree of type 2 diabetes was then evaluated using the KO mice to simulate the screening of the preventive or therapeutic agent for type 2 diabetes caused by the Cdkal1 abnormality.
(§2) The procedures for evaluating the degree of type 2 diabetes consists of measuring the fasting blood glucose level and glucose-tolerance blood glucose level for KO mice and WT mice, comparing the blood glucose levels for both of the mice, and evaluating them. In this test, Exendin-4 was administered twice a day for 2 weeks at a rate of 0.1 mg per kg, of body weight.

[2] = test system: KO mice (Cdkal1 knock-out mice, type 2 diabetes model); assay: Screening simulation: fasting and glucose-tolerance blood glucose level after Exendin-4 in KO mice; format: in vivo, mouse; conditions: intraperitoneal, 0.1 mg per kg twice a day, after 1 week and 2 weeks, ANOVA p=0.02
Method: as §1, §2

Substance: Exendin-4
- glucose tolerance (blood glucose level after glucose tolerance) [1]: significantly improved glucose tolerance
- glucose tolerance (blood glucose level after glucose tolerance) [2]: significantly improved glucose tolerance
